In the kinase profiling compilation of Christmann-Franck et al. (2016):

Assays:
Test in all cases: KINOMEscan competition binding
Settings in all cases: compound 10.0 µM
FLT1 (human) = FLT1 (human) (UniProt P17948)
PTK2B (human) = PTK2B (human) (UniProt Q14289)
[1] = tested on: PIK3CA (human), P42336 [C420R]
FES (human) = FES (human) (UniProt P07332)
ERBB2 (human) = ERBB2 (human) (UniProt P04626)
MAP3K6 (human) = MAP3K6 (human) (UniProt O95382)
ERBB3 (human) = ERBB3 (human) (UniProt P21860)
PIK3CB (human) = PIK3CB (human) (UniProt P42338)
[2] = tested on: EGFR (human), P00533 [752-759 del]
ALK (human) = ALK (human) (UniProt Q9UM73)
HCK (human) = HCK (human) (UniProt P08631)
MARK2 (human) = MARK2 (human) (UniProt Q7KZI7)
RPS6KA6 KD1 (human) = RPS6KA6 KD1 (human) (UniProt Q9UK32)
DYRK1B (human) = DYRK1B (human) (UniProt Q9Y463)
[3] = tested on: PIK3CA (human), P42336 [I800L]
CSNK1G3 (human) = CSNK1G3 (human) (UniProt Q9Y6M4)
MAP3K2 (human) = MAP3K2 (human) (UniProt Q9Y2U5)
CDK2 (human) = CDK2 (human) (UniProt P24941)
CDK11B (human) = CDK11B (human) (UniProt P21127)
HIPK2 (human) = HIPK2 (human) (UniProt Q9H2X6)
MYO3B (human) = MYO3B (human) (UniProt Q8WXR4)
EIF2AK1 (human) = EIF2AK1 (human) (UniProt Q9BQI3)
MAP3K12 (human) = MAP3K12 (human) (UniProt Q12852)
KIT (human) = KIT (human) (UniProt P10721)
RPS6KA1 KD2 (human) = RPS6KA1 KD2 (human) (UniProt Q15418)
NEK5 (human) = NEK5 (human) (UniProt Q6P3R8)
STK17B (human) = STK17B (human) (UniProt O94768)
VRK2 (human) = VRK2 (human) (UniProt Q86Y07)
[4] = tested on: FLT3 (human), P36888 [K663Q]
STK11 (human) = STK11 (human) (UniProt Q15831)
MAPK8 (human) = MAPK8 (human) (UniProt P45983)
CDK17 (human) = CDK17 (human) (UniProt Q00537)
EPHA3 (human) = EPHA3 (human) (UniProt P29320)
CASK (human) = CASK (human) (UniProt O14936)
MAP3K4 (human) = MAP3K4 (human) (UniProt Q9Y6R4)
MAST1 (human) = MAST1 (human) (UniProt Q9Y2H9)
SNRK (human) = SNRK (human) (UniProt Q9NRH2)
[5] = tested on: RET (human), P07949 [M918T]
EPHA2 (human) = EPHA2 (human) (UniProt P29317)
PRKG1 (human) = PRKG1 (human) (UniProt Q13976)
CHEK2 (human) = CHEK2 (human) (UniProt O96017)

Chain of PIK3CB (human) (P42338 whole entry, looked up): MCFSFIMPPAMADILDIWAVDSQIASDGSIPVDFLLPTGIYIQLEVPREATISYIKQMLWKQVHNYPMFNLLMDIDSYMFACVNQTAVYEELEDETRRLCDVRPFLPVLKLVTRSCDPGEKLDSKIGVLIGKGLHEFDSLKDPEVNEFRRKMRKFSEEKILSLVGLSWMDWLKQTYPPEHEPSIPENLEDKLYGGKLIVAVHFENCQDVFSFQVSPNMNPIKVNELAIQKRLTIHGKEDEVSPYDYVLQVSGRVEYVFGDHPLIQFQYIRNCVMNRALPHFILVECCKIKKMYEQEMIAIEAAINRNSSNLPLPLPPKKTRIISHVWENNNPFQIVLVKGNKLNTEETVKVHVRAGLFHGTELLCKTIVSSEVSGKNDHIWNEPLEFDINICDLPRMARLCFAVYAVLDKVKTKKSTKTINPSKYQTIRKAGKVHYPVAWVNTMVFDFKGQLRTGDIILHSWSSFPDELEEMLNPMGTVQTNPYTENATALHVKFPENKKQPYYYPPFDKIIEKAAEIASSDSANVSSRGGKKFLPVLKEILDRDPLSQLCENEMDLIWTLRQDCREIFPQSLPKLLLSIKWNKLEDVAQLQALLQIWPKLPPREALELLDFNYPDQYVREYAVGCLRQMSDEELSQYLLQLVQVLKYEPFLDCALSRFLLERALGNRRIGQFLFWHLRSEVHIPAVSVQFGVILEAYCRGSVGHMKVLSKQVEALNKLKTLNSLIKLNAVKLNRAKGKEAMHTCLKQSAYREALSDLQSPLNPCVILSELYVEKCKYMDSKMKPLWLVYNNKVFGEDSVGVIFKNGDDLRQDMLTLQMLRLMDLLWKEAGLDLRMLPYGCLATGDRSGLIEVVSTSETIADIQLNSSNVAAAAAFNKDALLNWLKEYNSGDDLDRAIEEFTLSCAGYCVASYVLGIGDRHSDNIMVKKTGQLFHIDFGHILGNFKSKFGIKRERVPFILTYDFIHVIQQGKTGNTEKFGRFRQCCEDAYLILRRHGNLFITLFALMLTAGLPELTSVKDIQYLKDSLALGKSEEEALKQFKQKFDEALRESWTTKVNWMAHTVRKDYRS
Chain of HCK (human) (P08631 whole entry, looked up): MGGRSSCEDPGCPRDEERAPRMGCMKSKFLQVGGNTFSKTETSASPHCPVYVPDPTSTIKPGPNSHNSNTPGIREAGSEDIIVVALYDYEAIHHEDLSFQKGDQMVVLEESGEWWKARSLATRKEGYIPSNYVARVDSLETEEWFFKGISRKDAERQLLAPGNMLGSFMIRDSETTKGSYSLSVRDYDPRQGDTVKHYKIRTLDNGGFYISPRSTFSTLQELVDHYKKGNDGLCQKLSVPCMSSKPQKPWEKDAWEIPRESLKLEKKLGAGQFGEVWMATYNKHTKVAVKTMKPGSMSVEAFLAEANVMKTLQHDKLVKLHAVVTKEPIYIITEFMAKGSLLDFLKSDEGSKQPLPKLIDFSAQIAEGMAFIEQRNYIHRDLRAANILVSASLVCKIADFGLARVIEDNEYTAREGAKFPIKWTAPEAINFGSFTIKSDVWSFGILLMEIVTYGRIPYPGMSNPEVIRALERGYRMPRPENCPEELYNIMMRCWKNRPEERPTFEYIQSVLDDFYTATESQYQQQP
Chain of HIPK2 (human) (Q9H2X6 whole entry, looked up): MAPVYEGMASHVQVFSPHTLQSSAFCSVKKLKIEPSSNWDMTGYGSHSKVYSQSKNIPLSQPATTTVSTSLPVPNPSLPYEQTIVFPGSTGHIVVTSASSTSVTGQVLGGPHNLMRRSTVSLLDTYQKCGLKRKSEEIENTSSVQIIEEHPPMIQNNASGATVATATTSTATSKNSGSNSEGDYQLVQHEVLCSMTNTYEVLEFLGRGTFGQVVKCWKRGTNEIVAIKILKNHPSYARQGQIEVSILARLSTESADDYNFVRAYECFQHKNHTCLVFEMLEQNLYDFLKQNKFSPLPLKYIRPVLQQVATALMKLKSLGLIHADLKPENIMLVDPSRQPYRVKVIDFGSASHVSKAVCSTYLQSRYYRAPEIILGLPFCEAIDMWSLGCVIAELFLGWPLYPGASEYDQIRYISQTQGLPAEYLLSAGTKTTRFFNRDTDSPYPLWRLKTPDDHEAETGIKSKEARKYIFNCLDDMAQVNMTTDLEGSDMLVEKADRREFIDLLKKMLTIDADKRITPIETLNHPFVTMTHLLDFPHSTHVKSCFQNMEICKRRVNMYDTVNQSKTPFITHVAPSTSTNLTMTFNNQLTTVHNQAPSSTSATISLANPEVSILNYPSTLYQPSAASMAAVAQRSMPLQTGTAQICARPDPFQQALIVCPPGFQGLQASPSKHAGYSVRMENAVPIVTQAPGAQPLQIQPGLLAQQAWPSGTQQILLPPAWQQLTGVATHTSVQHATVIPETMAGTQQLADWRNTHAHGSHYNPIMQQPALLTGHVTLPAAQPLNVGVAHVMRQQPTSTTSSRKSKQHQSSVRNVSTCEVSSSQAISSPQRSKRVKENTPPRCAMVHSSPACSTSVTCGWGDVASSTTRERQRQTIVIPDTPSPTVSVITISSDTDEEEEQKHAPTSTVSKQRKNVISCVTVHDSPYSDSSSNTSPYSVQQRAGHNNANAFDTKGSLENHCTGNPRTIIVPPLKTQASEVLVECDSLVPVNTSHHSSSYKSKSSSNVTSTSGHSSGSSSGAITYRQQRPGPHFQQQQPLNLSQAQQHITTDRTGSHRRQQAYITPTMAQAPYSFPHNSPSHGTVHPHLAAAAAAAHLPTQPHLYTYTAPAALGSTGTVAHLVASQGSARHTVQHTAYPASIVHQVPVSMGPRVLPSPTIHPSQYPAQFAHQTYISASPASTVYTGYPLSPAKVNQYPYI
Chain of MAP3K12 (human) (Q12852 whole entry, looked up): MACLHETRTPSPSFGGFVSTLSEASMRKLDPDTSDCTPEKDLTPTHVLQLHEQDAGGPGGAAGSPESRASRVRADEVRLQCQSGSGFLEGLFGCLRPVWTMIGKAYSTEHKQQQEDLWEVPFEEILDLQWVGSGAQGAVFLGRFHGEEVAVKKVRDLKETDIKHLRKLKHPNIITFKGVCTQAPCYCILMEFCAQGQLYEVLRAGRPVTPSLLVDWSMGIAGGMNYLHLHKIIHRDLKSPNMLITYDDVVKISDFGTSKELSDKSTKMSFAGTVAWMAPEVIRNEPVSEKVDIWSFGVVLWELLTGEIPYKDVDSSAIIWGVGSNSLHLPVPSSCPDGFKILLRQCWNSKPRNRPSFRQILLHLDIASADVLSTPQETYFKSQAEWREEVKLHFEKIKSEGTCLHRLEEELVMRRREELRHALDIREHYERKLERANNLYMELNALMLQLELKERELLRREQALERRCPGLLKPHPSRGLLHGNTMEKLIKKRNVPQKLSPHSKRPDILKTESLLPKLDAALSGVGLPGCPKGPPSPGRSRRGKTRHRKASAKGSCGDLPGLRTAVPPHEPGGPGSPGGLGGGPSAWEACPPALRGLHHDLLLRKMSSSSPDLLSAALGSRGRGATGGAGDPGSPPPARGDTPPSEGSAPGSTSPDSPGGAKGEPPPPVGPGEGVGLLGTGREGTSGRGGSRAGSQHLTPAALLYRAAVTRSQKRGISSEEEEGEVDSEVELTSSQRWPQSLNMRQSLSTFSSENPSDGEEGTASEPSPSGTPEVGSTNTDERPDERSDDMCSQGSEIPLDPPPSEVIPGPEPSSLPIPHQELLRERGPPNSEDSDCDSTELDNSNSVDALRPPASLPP
Chain of DYRK1B (human) (Q9Y463 whole entry, looked up): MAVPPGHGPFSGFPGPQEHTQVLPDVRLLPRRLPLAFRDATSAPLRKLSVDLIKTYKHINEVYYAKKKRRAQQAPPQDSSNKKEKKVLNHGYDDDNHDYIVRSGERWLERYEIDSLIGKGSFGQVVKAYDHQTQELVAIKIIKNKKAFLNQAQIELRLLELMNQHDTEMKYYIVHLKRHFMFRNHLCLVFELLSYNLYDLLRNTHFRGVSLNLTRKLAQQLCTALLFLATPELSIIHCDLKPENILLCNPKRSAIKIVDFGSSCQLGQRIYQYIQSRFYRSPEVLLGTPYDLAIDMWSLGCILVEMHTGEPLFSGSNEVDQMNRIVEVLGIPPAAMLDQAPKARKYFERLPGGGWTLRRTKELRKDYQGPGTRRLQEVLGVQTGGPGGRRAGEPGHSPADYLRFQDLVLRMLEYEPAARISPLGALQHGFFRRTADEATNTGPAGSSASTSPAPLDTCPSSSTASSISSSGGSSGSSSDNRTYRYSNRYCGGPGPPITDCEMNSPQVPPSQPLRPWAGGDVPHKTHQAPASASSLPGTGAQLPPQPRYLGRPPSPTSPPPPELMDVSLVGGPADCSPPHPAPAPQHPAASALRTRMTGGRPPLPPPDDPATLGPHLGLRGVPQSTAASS
Chain of FES (human) (P07332 whole entry, looked up): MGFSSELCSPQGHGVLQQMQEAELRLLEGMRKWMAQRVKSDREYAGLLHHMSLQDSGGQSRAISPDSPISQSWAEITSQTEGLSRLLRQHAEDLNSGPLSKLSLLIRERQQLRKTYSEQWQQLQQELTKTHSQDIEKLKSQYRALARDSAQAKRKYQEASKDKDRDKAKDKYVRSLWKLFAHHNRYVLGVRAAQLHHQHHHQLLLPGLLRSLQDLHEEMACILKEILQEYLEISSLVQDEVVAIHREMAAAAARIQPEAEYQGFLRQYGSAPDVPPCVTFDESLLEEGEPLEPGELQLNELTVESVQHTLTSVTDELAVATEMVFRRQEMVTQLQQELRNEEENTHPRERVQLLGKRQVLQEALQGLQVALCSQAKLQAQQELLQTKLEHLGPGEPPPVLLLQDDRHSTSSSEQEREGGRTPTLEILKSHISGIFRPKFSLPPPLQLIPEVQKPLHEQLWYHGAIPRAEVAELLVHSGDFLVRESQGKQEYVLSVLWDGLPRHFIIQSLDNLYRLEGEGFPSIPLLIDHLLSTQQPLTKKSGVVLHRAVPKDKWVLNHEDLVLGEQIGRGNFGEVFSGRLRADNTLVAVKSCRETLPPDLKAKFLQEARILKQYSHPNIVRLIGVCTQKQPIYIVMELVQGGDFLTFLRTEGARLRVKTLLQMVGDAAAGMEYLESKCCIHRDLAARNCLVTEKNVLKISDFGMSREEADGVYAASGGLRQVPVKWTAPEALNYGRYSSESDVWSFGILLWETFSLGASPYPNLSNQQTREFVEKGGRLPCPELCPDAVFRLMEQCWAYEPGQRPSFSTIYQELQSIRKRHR

Structure (SMILES): COc1cc(C(=O)N2CCC(N3CCN(C)CC3)CC2)ccc1Nc1ncc2c(n1)N(C)c1ccccc1C(=O)N2C
- kinase still bound, per cent of control (FLT1 (human)): 100%
- kinase still bound, per cent of control (PTK2B (human)): 78%
- kinase still bound, per cent of control [1]: 89%
- kinase still bound, per cent of control (FES (human)): 84%
- kinase still bound, per cent of control (ERBB2 (human)): 100%
- kinase still bound, per cent of control (MAP3K6 (human)): 100%
- kinase still bound, per cent of control (ERBB3 (human)): 100%
- kinase still bound, per cent of control (PIK3CB (human)): 96%
- kinase still bound, per cent of control [2]: 99%
- kinase still bound, per cent of control (ALK (human)): 13%
- kinase still bound, per cent of control (HCK (human)): 100%
- kinase still bound, per cent of control (MARK2 (human)): 100%
- kinase still bound, per cent of control (RPS6KA6 KD1 (human)): 92%
- kinase still bound, per cent of control (DYRK1B (human)): 94%
- kinase still bound, per cent of control [3]: 38%
- kinase still bound, per cent of control (CSNK1G3 (human)): 93%
- kinase still bound, per cent of control (MAP3K2 (human)): 97%
- residual activity (CDK2 (human)): 100%
- residual activity (CDK11B (human)): 84%
- kinase still bound, per cent of control (HIPK2 (human)): 88%
- kinase still bound, per cent of control (MYO3B (human)): 83%
- kinase still bound, per cent of control (EIF2AK1 (human)): 100%
- residual activity (MAP3K12 (human)): 81%
- kinase still bound, per cent of control (KIT (human)): 100%
- kinase still bound, per cent of control (RPS6KA1 KD2 (human)): 10%
- kinase still bound, per cent of control (NEK5 (human)): 100%
- kinase still bound, per cent of control (STK17B (human)): 93%
- kinase still bound, per cent of control (VRK2 (human)): 99%
- kinase still bound, per cent of control [4]: 97%
- kinase still bound, per cent of control (STK11 (human)): 96%
- kinase still bound, per cent of control (MAPK8 (human)): 95%
- residual activity (CDK17 (human)): 83%
- kinase still bound, per cent of control (EPHA3 (human)): 100%
- kinase still bound, per cent of control (CASK (human)): 85%
- kinase still bound, per cent of control (MAP3K4 (human)): 100%
- kinase still bound, per cent of control (MAST1 (human)): 100%
- kinase still bound, per cent of control (SNRK (human)): 94%
- kinase still bound, per cent of control [5]: 100%
- kinase still bound, per cent of control (EPHA2 (human)): 92%
- kinase still bound, per cent of control (PRKG1 (human)): 98%
- kinase still bound, per cent of control (CHEK2 (human)): 66%
